Measured values as given in article PMC8498988, “Scaffold Hybridization Strategy Leads to the Discovery of Dopamine D3 Receptor-Selective or Multitarget Bitopic Ligands Potentially Useful for Central Nervous System Disorders” (ACS Chemical Neuroscience, 2021).

What was measured:
D3R = D3R (Homo sapiens, UniProt P35462); test: D3 mitogenesis functional assay (CHOp-D3 cells); format: cell-based; set-up: expressed in transfected cells; host or cells: CHOp-D3 cells; details: for EC50 / % stimul., D3 mitogenesis assay: agonist mode; for % stimul., D3 mitogenesis assay: standard agonist quinpirole; for IC50 / % inhibition (efficacy), D3R when tested as an antagonist: antagonist mode; for IC50: inhibition of quinpirole stimulation of mitogenesis, read-out: IC50, D3R when tested as an antagonist; for % inhibition (efficacy), D3R when tested as an antagonist: standard antagonist NGB 2904; for functional behavior at D3R: in words
Sequence of D3R (P35462 whole entry): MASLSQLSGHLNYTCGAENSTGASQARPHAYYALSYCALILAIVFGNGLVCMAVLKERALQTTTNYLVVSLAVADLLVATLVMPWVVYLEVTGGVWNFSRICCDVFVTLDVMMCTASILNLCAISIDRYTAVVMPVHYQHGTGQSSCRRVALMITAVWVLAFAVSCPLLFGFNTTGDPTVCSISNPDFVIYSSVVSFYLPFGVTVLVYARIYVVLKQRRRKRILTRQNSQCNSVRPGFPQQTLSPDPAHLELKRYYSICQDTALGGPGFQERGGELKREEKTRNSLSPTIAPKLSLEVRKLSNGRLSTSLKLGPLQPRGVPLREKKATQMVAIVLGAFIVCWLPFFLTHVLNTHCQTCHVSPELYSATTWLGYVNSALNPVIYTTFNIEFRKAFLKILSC
Protocol: (§1) CHOp-D2 and CHOp-D3 cells are maintained in α-MEM with 10% fetal bovine serum (FBS, Atlas Biologicals), 0.05% pen-strep, and 400 μg/mL of G418. […] The cells are incubated at 37 °C in α-MEM with 10% FBS. After 48–72 h, the cells are rinsed twice with serum-free α-MEM and incubated for 24 h at 37 °C. Serial dilutions of test compounds are made by the Biomek robotics system in serum-free α-MEM. In the functional assay for agonists, the medium is removed and replaced with 100 μL of test compound in serum-free α-MEM. In the antagonist assay, the serial dilution of the putative antagonist test compound is added in 90 μL (1.1× of final concentration) and 300 nM quinpirole (30 nM final) is added in 10 μL. After another 24 h (D2) or 16 h (D3) incubation at 37 °C, 0.25 μCi of [^3H]thymidine in αMEM supplemented with 10% FBS is added to each well, and the plates are further incubated for 2 h at 37 °C. The cells are trypsinized by addition of 10× trypsin solution (1% trypsin in calcium–magnesium-free phosphate-buffered saline), and the plates are filtered and counted as usual. Quinpirole is run each day as an internal control, and dopamine is included for comparative purposes.

D2R = D2R (Homo sapiens, UniProt P14416); test: D2 mitogenesis functional assay (CHOp-D2 cells); format: cell-based; set-up: expressed in transfected cells; host or cells: CHOp-D2 cells; details: for IC50 / % inhib., D2 mitogenesis assay: antagonist mode; for IC50: inhibition of quinpirole stimulation of mitogenesis; for % inhib., D2 mitogenesis assay: standard antagonist (+)-butaclamol; for functional behavior at D2R: in words
Sequence of D2R (P14416 whole entry): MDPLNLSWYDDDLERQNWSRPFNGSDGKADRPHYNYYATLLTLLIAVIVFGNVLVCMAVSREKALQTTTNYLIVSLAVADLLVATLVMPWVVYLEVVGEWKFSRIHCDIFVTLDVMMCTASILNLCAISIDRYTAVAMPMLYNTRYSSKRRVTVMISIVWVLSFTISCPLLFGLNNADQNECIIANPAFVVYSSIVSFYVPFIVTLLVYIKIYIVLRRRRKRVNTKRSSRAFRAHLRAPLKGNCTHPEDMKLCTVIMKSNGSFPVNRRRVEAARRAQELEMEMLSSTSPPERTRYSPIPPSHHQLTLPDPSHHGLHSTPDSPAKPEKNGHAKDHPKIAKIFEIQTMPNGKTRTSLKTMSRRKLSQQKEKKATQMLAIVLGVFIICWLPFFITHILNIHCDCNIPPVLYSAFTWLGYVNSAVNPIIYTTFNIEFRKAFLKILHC
Protocol: as §1

human 5-HT1AR = target: T1, human 5-HT1AR (Homo sapiens, UniProt P08908); test: Radioligand binding assay at human 5-HT1AR ([3H]8-OH-DPAT, HeLa cells); details: HeLa cells expressing h5-HT1AR, read-out: Ki ± SEM, 5-HT1AR
T1 construct: expressed in transfected cells; host or cells: HeLa
T1 sequence (P08908 1-422): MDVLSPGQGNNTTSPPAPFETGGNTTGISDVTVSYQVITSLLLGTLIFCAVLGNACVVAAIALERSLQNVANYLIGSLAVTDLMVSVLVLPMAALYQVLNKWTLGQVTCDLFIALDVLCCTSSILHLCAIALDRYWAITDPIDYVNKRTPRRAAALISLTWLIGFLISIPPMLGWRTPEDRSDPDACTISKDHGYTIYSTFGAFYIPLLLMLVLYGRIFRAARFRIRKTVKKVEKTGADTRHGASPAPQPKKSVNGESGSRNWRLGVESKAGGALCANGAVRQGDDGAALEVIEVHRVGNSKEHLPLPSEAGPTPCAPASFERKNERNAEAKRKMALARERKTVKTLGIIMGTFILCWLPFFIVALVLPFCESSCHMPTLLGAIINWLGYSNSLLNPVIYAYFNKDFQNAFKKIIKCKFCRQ
Protocol: A human cell line (HeLa) stably transfected with genomic clone G-21 coding for the human 5-HT1AR was used. Cells were grown as monolayers in Dulbecco’s modified Eagle’s medium supplemented with 10% fetal calf serum and gentamycin (100 μg/mL) under 5% CO2 at 37 °C. Cells were detached from the growth flask at 95% confluency by a cell scraper and were lysed in ice-cold Tris (5 mM) and EDTA buffer (5 mM, pH 7.4). Homogenates were centrifuged for 20 min at 40000g, and pellets were resuspended in a small volume of ice-cold Tris/EDTA buffer (above) and immediately frozen and stored at -70 °C until use. On the day of experiment, cell membranes (80–90 μg of protein) were resuspended in binding buffer (50 mM Tris, 2.5 mM MgCl2, and 10 mM pargyline, pH 7.4). Membranes were incubated in a final volume of 0.32 mL for 30 min at 30 °C with 1 nM [^3H]8-OH-DPAT in the absence or presence of various concentrations of competing drugs (1 pM to 1 μM); each experimental condition was performed in triplicate. Nonspecific binding was determined in the presence of 10 μM 5-HT.

O=C(NCCCCN1CCN(c2cccc(Cl)c2Cl)CC1)C1COC(c2ccccc2)(c2ccccc2)CO1 (stereo not drawn) [compound 6, N-(4-(4-(2,3-Dichlorophenyl)piperazin-1-yl)butyl)-5,5-diphenyl-1,4-dioxane-2-carboxamide]
EC50 (D3R): 2.72 nM
% stimul., D3 mitogenesis assay (D3R): 25.7%
IC50 (D3R): 6.6 nM
% inhibition (efficacy), D3R when tested as an antagonist (D3R): 64.0%
functional behavior at D3R (D3R): D3R and 5-HT2CR partial agonists with high and low potency, respectively
IC50 (D2R): 8.5 nM
% inhib., D2 mitogenesis assay (D2R): (95.2) %
functional behavior at D2R (D2R): efficacious D2R and 5-HT2AR antagonists with high and low potency, respectively
Ki (human 5-HT1AR): 9.1 ± 0.97 nM

O=C(NCCCCN1CCN(c2cccc(Cl)c2Cl)CC1)C1COCC(c2ccccc2)(c2ccccc2)O1 (stereo not drawn) [compound 3, N-(4-(4-(2,3-Dichlorophenyl)piperazin-1-yl)butyl)-6,6-diphenyl-1,4-dioxane-2-carboxamide]
EC50 (D3R): 9.8 ± 1.6 nM
% stimul., D3 mitogenesis assay (D3R): 36%
IC50 (D3R): 38 nM
% inhibition (efficacy), D3R when tested as an antagonist (D3R): 82.7%
functional behavior at D3R (D3R): partial agonist
IC50 (D2R): 139 nM
% inhib., D2 mitogenesis assay (D2R): (93.5) %
functional behavior at D2R (D2R): weak D2R antagonist
Ki (human 5-HT1AR): 288 ± 15 nM

O=C(NCCCCN1CCN(c2cccc(Cl)c2Cl)CC1)C1COc2ccccc2O1 (stereo not drawn) [compound 9, N-(4-(4-(2,3-Dichlorophenyl)piperazin-1-yl)butyl)-2,3-dihydrobenzo[b][1,4]dioxine-2-carboxamide]
EC50 (D3R): 5 ± 1.7 nM
% stimul., D3 mitogenesis assay (D3R): 34.0%
IC50 (D3R): 40.4 nM
% inhibition (efficacy), D3R when tested as an antagonist (D3R): 64.2%
functional behavior at D3R (D3R): D3R and 5-HT2CR partial agonists with high and low potency, respectively
IC50 (D2R): 40 nM
% inhib., D2 mitogenesis assay (D2R): (94.4) %
functional behavior at D2R (D2R): efficacious D2R and 5-HT2AR antagonists with high and low potency, respectively
Ki (human 5-HT1AR): 23.8 ± 5.2 nM
